From patent publication US20220347125A1, “ANTITUMOR AGENT AND COMPOUNDING AGENT” (Keio University, priority 2019, published 2022)
d = 2'-deoxy (DNA); r = 2'-OH (RNA)

Key:
[1] = system: SSZ-resistant tumor cells (HCT116 and HSC-4); assay: Intracellular GSH levels, GSH-Glo Glutathione Assay (Experimental Example 12); assay type: cell-based; settings: BSO or OXY alone, or SSZ with OXY, after 48 hours
Method: SSZ-resistant tumor cells (HCT116 and HSC-4) were used and the cells were treated in a similar manner to that in Example 11, and the intracellular GSH levels were measured after 48 hours using a GSH-Glo Glutathione Assay Kit (Promega).

[2] = system: sulfasalazine-resistant tumor cells (HCT116 and HSC-4); assay: Intracellular HNE accumulation, SSZ or BSO with OXY (Experimental Example 13); assay type: cell-based; settings: SSZ, BSO or OXY alone, or SSZ or BSO in combination with OXY
Method: (§1) As in Experimental Example 1, HSC-4 cells were cultured in a medium containing 50 μM dyclonine or an equal volume of DMSO and 0 μM (not added) or 400 μM sulfasalazine, and the treated cells were fixed with 4% PFA-PBS. Then, the cells were permeabilized with 0.2% Triton X100-PBS, followed by blocking with 3% BSA-PBS. Subsequently, fluorescent staining was performed using an anti-HNE antibody as the primary antibody and AlexaFluor 488-conjugated anti-mouse IgG antibody as the secondary antibody. As a positive control, cells incubated with 50 μM HNE for 30 min were used and stained using antibodies in a similar manner.
In this experimental example, sulfasalazine-resistant tumor cells (HCT116 and HSC-4) were used, and the cells were treated as in Experimental Example 6 and then observed under a fluorescence microscope.

[3] = system: A549, HCT116 and HSC4; assay: Cell viability, oxyfedrine with SSZ or BSO, statements for all three lines (Experimental Example 11); settings: 48 hours; for effect on cell survival rate: 400 μM sulfasalazine alone or 100 μM L-buthionine sulfoximine alone
Method: Alveolar basal epithelial adenocarcinoma cell line A549, colon adenocarcinoma cell line HCT116, and oral squamous carcinoma cell line HSC-4, all of which are resistant to sulfasalazine or L-buthionine-sulfoximine, were seeded in 96-well plates at 4000 cells/well, and the culture was started. RPMI was used for the A549 and DMEM was used for the HCT116 and HSC-4 as culture media. After 24 hours, each medium was replaced with a medium containing 50 or 100 μM oxyfedrine or an equal volume of DMSO, and 0 (no sulfasalazine and no L-buthionine sulfoximine) or 400 μM sulfasalazine or 100 μM L-buthionine sulfoximine, and the culture was continued for 48 hours. Then, the cells were assayed for cell viability using CellTiter-Glo (Promega), and a cell survival rate in each case was calculated taking the number of live cells in the control (DMSO added, and sulfasalazine and L-buthionine sulfoximine not added) as 100%.

[4] = system: ALDH; assay: ALDH activity, ALDEFLUOR Kit with FACS in HSC-4 cells (Experimental Example 5); assay type: cell-based; settings: 50 μM dyclonine 24 hours, or DEAB, DMSO-treated cells approximately 25%
Method: HSC-4 cells, a sulfasalazine-resistant oral squamous carcinoma cell line, were seeded at 8×10^5 cells/dish in 10-cm cell culture dishes, and culture was started. DMEM was used as the culture medium. After 24 hours, the medium was replaced with a medium containing 50 μM dyclonine (solvent: DMSO), and the cells were cultured for another 24 hours. The cells were then collected, stained with the ALDEFLUOR Kit (STEMCELL Technologies) for ALDH activity in the presence of N,N-diethylaminobenzaldehyde (DEAB), and analyzed by FACS (“Dyclonine” in the figure). As a control, experimental results are shown for cells cultured in the absence of DEAB which were not stained with the ALDEFLUOR Kit (“Unstained” in the figure), and cells that were stained with the ALDEFLUOR Kit after replacing the medium with an equal volume of medium with DMSO and without dyclonine (“Non-treatment” in the figure). For the positive cell counts, a gate was set to gate out positive cells to almost 0% in the DMSO-treated sample stained with the ALDEFLUOR Kit in the presence of DEAB (“DEAB” in the figure), and the positive rate in each case was calculated.

[5] = system: A549 cells; assay: Cell viability, Nrf2 siRNA or ML385 with OXY and SSZ or BSO (Experimental Example 18); assay type: cell-based; settings: in addition to 400 μM SSZ and 50 μM OXY, 48 hours
Method: A549 cells were transfected with siRNA against the Nrf2 gene as in Example 17, or the medium was supplemented with ML385 that is an Nrf2 inhibitor. Cells were cultured for 48 hours in a medium containing 50 μM OXY, and 400 μM SSZ or 100 μM BSO, as in Example 11. Then, the cells were assayed for cell viability. As a control, the experiments were performed in a medium without any of the above. DMSO, however, was added appropriately to add a constant volume of DMSO in all cases.

[6] = system: HSC-4, a sulfasalazine-resistant oral squamous carcinoma cell line; assay: Cell viability (CellTiter-Glo), sulfasalazine and dyclonine (Experimental Example 1); assay type: cell-based; settings: 48 hours
Method: HSC-4, a sulfasalazine-resistant oral squamous carcinoma cell line, was seeded in a 96-well plate at 2000 cells/well, and culture was started. DMEM was used as the culture medium. After 24 hours, the medium was replaced with a medium containing 50 μM dyclonine or an equal volume of DMSO, as well as 0 (not added), 50, 100, 200, or 400 μM sulfasalazine, and the culture was continued for 48 hours.

[7] = system: HSC-4 cells; assay: Intracellular HNE accumulation, anti-HNE fluorescent staining (Experimental Example 6); assay type: cell-based; settings: 50 μM dyclonine and/or 400 μM sulfasalazine
Method: as §1

[8] = system: HSC-4 cells; assay: Dyclonine sensitivity after xCT knockdown, cell viability (Experimental Example 2); assay type: cell-based; settings: 48 hours
Method: HSC-4 cells, a sulfasalazine-resistant oral squamous carcinoma cell line, were seeded in a 96-well plate at 3000 cells/well, and nonsilencing control (scrambled (Sense: UUCUCCGAACGUGUCACGUtt (SEQ ID NO. 1), Antisense: ACGUGACACGUUCGGAGAAtt (SEQ ID NO. 2))) and siRNA or xCT specific siRNA (xCT siRNA #1 Sense: AGAAAUCUGGAGGUCAUUAtt (SEQ ID NO. 3), Antisense: […] (SEQ ID NO. 4), xCT siRNA #2 Sense: CCAGAACAUUACAAAUAAUtt (SEQ ID NO. 5), Antisense: AUUAUUUGUAAUGUUCUGGtt (SEQ ID NO. 6)) were lipofected using Lipofectamine RNAiMAX (Thermo Fisher Scientific), and culture was started. DMEM was used as the culture medium. After 24 hours, the medium was replaced with a medium containing 50 μM dyclonine (solvent: DMSO) or an equal volume of DMSO, and the culture was continued for 48 hours.

[9] = system: SSZ-resistant tumor cells (HCT116 and HSC-4); assay: Cell survival rate after ionizing radiation in the presence of OXY (Experimental Example 16); assay type: cell-based; settings: irradiated at 4, 6 or 10 Gy in the presence of 50 μM OXY, after 24 hours; versus irradiation or OXY alone
Method: (§2) In this experimental example, SSZ-resistant tumor cells (HCT116 and HSC-4) were irradiated with ionizing radiation at a dose of 4, 6, or 10 Gy using an X-ray irradiation system (Hitachi MBR-1520R-4, settings: 150 kV, 20 mA) in the presence of 50 μM oxyfedrine (OXY). In parallel, samples without OXY and ionizing radiation (0 Gy) were processed as a control. After 24 hours, cell survival rate was calculated as in Experimental Example 1. In addition, intracellular HNE was visualized as in Experimental Example 6.

[10] = system: sulfasalazine-resistant, oral squamous carcinoma cell line HSC-2; assay: In vivo tumor weight, X-irradiation and oxyfedrine (Experimental Example 19); set-up: species or system nude mice; settings: oxyfedrine 20-30 mg/kg intraperitoneally Days 1-7, versus non-treated group
Method: The mice were injected intraperitoneally with oxyfedrine (OXY) (20 mg/kg) for 3 consecutive days (Days 1-3) immediately after transplantation. On Day4, oxyfedrine (30 mg/kg) was intraperitoneally administered, and X-rays (4, 6, or 10 Gy) were irradiated to the nude mice 2 hours later. Then, after intraperitoneal administration of oxyfedrine (20 mg/kg) for 3 days (Days 5-7), tumors were collected on Day 7 and weighed. The results are shown in a bar graph in FIG. 21. The groups of nude mice on which transplantation was performed in the same way, to which oxyfedrine was administered in the same way without X-irradiation, and to which no oxyfedrine was administered with X-irradiation in the same way, were used as controls. For statistical treatment, Student's 1-test was performed between the oxyfedrine and non-treated groups for each X-ray dose, and p value of less than 0.05 was considered significant.

[11] = system: SSZ-resistant tumor cells (HCT116 and HSC-4); assay: Intracellular HNE after ionizing radiation in the presence of OXY (Experimental Example 16); assay type: cell-based; settings: irradiation and 50 μM OXY treatment in combination
Method: as §2

[12] = system: A549 cells; assay: Western blotting after Nrf2 siRNA lipofection (Experimental Example 17); assay type: cell-based; settings: 48 hours after lipofection
Method: Nrf2, xCT, and β-actin expressions were detected in the extracts of SSZ-resistant tumor cells (HCT116, HSC-4, and A549) via Western blotting with primary antibodies against Nrf2, xCT, and β-actin and HRP-conjugated secondary antibody. Chemiluminescence Reagent Plus (Perkin-Elmer Japan) was used for detection.
Next, siRNA against the Nrf2 gene was lipofected into A549 cells to suppress the Nrf2 gene expression. The extracts of the lipofected A549 cells were prepared after 48 hours and the expressions of Nrf2, xCT, ALDH3A1, and β-actin were examined via Western blotting in the same way as above. The following sequences (bases shown in lower case are DNA overhangs) were used as siRNA.

CCCCS(=N)(=O)CC[C@H](N)C(=O)O (stereo partly drawn) [BSO, L-buthionine-sulfoximine]
intracellular GSH levels [1]: reduced | intracellular HNE levels and frequency [2]: increased intracellular HNE levels were observed at a low frequency | effect on cell survival rate [3]: little effect

CCN(CC)c1ccc(C=O)cc1 [DEAB, N,N-diethylaminobenzaldehyde]
cell population with high ALDH activity [4]: approximately 1%

Cc1ccccc1C(=O)N1CCc2cc(-c3nc(NC(=O)Cc4ccc5c(c4)OCO5)sc3C)ccc21 [ML385]
cell survival rate [5]: effectively reduced

CCCCOc1ccc(C(=O)CCN2CCCCC2)cc1 [dyclonine]
cell survival ([6]; 50 μM dyclonine alone, no sulfasalazine added, control (DMSO) = 100%): 80% | cell population with high ALDH activity [4]: approximately 1% | intracellular HNE level and frequency [7]: an increase in intracellular HNE level was observed at a low frequency | HSC-4 cell survival rate ([8]; 50 μM dyclonine alone (nonsilencing control)): approximately 60% | HSC-4 cell survival rate ([8]; xCT knockdown (xCT siRNA) in the presence of 50 μM dyclonine): 10-20%

O=C(O)c1cc(/N=N/c2ccc(S(=O)(=O)Nc3ccccn3)cc2)ccc1O [sulfasalazine]
effect on cell survival ([6]; sulfasalazine alone, 50-400 μM): almost no effect | intracellular GSH levels [1]: reduced | intracellular HNE levels and frequency [2]: increased intracellular HNE levels were observed at a low frequency | intracellular HNE level and frequency [7]: an increase in intracellular HNE level was observed at a low frequency | effect on cell survival rate [3]: little effect

oxyfedrine
cell survival rate [9]: significantly and markedly reduced | intracellular GSH levels [1]: did not reduce the intracellular GSH levels | intracellular HNE levels and frequency [2]: increased intracellular HNE levels were observed at a low frequency | tumor weight gain ([10]; 4 Gy X-irradiation): tended to be suppressed | tumor weight gain ([10]; 6 Gy X-irradiation): significantly suppressed | tumor weight gain ([10]; 10 Gy X-irradiation): significantly suppressed | tumor weight gain ([10]; without X-irradiation): tended to be suppressed | intracellular HNE-accumulating cells [11]: high levels of intracellular HNE-accumulating cells were observed at a high frequency | cytotoxic effect ([3]; 50 μM oxyfedrine alone, without sulfasalazine): no significant cytotoxic effect

siRNA against the Nrf2 gene: siRNA against the Nrf2 gene, SEQ ID NO. 9 and 10 (chain 1 UCCUACUGUGAUGUGAAAUTT; chain 2 AUUUCACAUCACAGUAGGAGC; sugars from the 5' end r19 d2, backbone not given here)
expressions of xCT and ALDH3A1 [12]: suppressed | cell survival rate [5]: effectively reduced
